Assay results: US4946854A, “3-aminobenzoylphenylureas useful for controlling parasites and insects that attack domestic animals and livestock” (priority 1987, dated 1990)
Values after ≈ are worked out from the molar mass of the structure shown. Where two headings read alike, the source gives them in different places.

Assays:
[1] = Bio-availability: blood plasma level after injection of calves; assay type: in vivo
Procedure: As a measure of bio-availability, the blood plasma level of the compounds is determined on several days after the injection of calves with, in each case, 1 mg of compound/kg body weight.

[2] = Physico-chemical characteristics: solubilities; assay type: physicochemical
Ctenocephalides felis = experiment: Action against fleas (infested dogs, oral); assay type: in vivo, Ctenocephalides felis (on dogs); conditions: 50 mg kg-1 day-1, dogs
Procedure: Dogs having the proven ability to support a flea population permanently are infested with 100 cat fleas Ctenocephalides felis Bouche. The infested dogs are then divided into 3 groups of 2 animals. […] The test compound is administered in the form of an aqueous suspension (by means of a syringe). The third group of animals is not treated and serves as a control group.
After 3, 8 and 10 days, the eggs of the fleas are collected from the paper which is under the dog cages. The eggs are counted, placed on a medium suitable for the culture of larvae and incubated. A count is made of the resulting pupae and fully grown fleas.

[3] = system: Lucilia sericata and L. cuprina; experiment: Action against blowflies; assay type: in vivo; conditions: 6.4 ppm, after at the most 96 h
Procedure: Freshly deposited eggs of the blowfly species Lucilia sericata and L. cuprina are placed in small portions (30 to 50 eggs) into each of a number of test tubes in which 4 ml of nutrient medium have been mixed with 1 ml of test solution at the intermediate dilution of the active ingredient necessary to obtain the final concentration. After inoculating the culture medium, the test tubes are sealed with cotton wool plugs and are then incubated in an incubator at 30° C. for 4 days. In the untreated medium, larvae about 1 cm in length (stage 3) have developed by the end of this 4-day period. When a compound is active the larvae are by the end of this period either dead or distinctly retarded. Four tests are carried out simultaneously with concentrations of 100, 40, 16 and 6.4 ppm, respectively. The activity is measured according to the lowest concentration that is still fully active (LC 100).

[4] = hexane, organic solvent or mixture, read-out: solubility in hexane
[5] = water, read-out: solubility in water

Q: For `O=C(NC(=O)c1c(F)cccc1F)Nc1ccc(Cl)c(Oc2ncc(C(F)(F)F)cc2Cl)c1` [(A)], which concentration at 24 h ([1]; bovine, plasma, 1 mg/kg, day 1, calf 1, 1 mg/kg injection) is on record?
A: The concentration at 24 h was 7 ng/mL.

Q: What about the concentration at 24 h ([1]; bovine, plasma, 1 mg/kg, day 1, calf 2, 1 mg/kg injection) of the same molecule?
A: The concentration at 24 h was 5 ng/mL.

Q: What about the concentration at 168 h ([1]; bovine, plasma, 1 mg/kg, day 7, calf 1, 1 mg/kg injection) of the same molecule?
A: Its concentration at 168 h is 3 ng/mL.

Q: And the concentration at 168 h ([1]; bovine, plasma, 1 mg/kg, day 7, calf 2, 1 mg/kg injection)?
A: The concentration at 168 h was 4 ng/mL.

Q: And the concentration at 336 h ([1]; bovine, plasma, 1 mg/kg, day 14, calf 1, 1 mg/kg injection)?
A: The concentration at 336 h was 4 ng/mL.

Q: What about the concentration at 336 h ([1]; bovine, plasma, 1 mg/kg, day 14, calf 2, 1 mg/kg injection) of the same molecule?
A: The concentration at 336 h was 9 ng/mL.

Q: What about the concentration at 504 h ([1]; bovine, plasma, 1 mg/kg, day 21, calf 1, 1 mg/kg injection) of the same molecule?
A: The concentration at 504 h was 7 ng/mL.

Q: What about the concentration at 504 h ([1]; bovine, plasma, 1 mg/kg, day 21, calf 2, 1 mg/kg injection) of the same molecule?
A: Its concentration at 504 h is 10 ng/mL.

Q: What about the concentration at 672 h ([1]; bovine, plasma, 1 mg/kg, day 28, calf 1, 1 mg/kg injection) of the same molecule?
A: Its concentration at 672 h is 6 ng/mL.

Q: What about the concentration at 672 h ([1]; bovine, plasma, 1 mg/kg, day 28, calf 2, 1 mg/kg injection) of the same molecule?
A: The concentration at 672 h was 5 ng/mL.

Q: What about the concentration at 840 h ([1]; bovine, plasma, 1 mg/kg, day 35, calf 1, 1 mg/kg injection) of the same molecule?
A: Its concentration at 840 h is 6 ng/mL.

Q: And the concentration at 840 h ([1]; bovine, plasma, 1 mg/kg, day 35, calf 2, 1 mg/kg injection)?
A: Its concentration at 840 h is 10 ng/mL.

Q: What about the concentration at 1008 h ([1]; bovine, plasma, 1 mg/kg, day 42, calf 1, 1 mg/kg injection) of the same molecule?
A: Its concentration at 1008 h is 9 ng/mL.

Q: What about the concentration at 1008 h ([1]; bovine, plasma, 1 mg/kg, day 42, calf 2, 1 mg/kg injection) of the same molecule?
A: Its concentration at 1008 h is 6 ng/mL.

Q: What about the concentration at 1176 h ([1]; bovine, plasma, 1 mg/kg, day 49, calf 1, 1 mg/kg injection) of the same molecule?
A: Its concentration at 1176 h is 4 ng/mL.

Q: What about the concentration at 1176 h ([1]; bovine, plasma, 1 mg/kg, day 49, calf 2, 1 mg/kg injection) of the same molecule?
A: Its concentration at 1176 h is 4 ng/mL.

Q: What about the concentration at 1344 h ([1]; bovine, plasma, 1 mg/kg, day 56, calf 1, 1 mg/kg injection) of the same molecule?
A: The concentration at 1344 h was 5 ng/mL.

Q: And the concentration at 1344 h ([1]; bovine, plasma, 1 mg/kg, day 56, calf 2, 1 mg/kg injection)?
A: The concentration at 1344 h was 5 ng/mL.

Q: And the concentration at 1512 h ([1]; bovine, plasma, 1 mg/kg, day 63, calf 1, 1 mg/kg injection)?
A: The concentration at 1512 h was 4 ng/mL.

Q: And the concentration at 1512 h ([1]; bovine, plasma, 1 mg/kg, day 63, calf 2, 1 mg/kg injection)?
A: Its concentration at 1512 h is 6 ng/mL.

Q: What about the concentration at 1680 h ([1]; bovine, plasma, 1 mg/kg, day 70, calf 1, 1 mg/kg injection) of the same molecule?
A: Its concentration at 1680 h is 7 ng/mL.

Q: What about the concentration at 1680 h ([1]; bovine, plasma, 1 mg/kg, day 70, calf 2, 1 mg/kg injection) of the same molecule?
A: Its concentration at 1680 h is 5 ng/mL.

Q: And the concentration at 1848 h ([1]; bovine, plasma, 1 mg/kg, day 77, calf 1, 1 mg/kg injection)?
A: Its concentration at 1848 h is 5 ng/mL.

Q: What about the concentration at 1848 h ([1]; bovine, plasma, 1 mg/kg, day 77, calf 2, 1 mg/kg injection) of the same molecule?
A: The concentration at 1848 h was 2 ng/mL.

Q: And the concentration at 2016 h ([1]; bovine, plasma, 1 mg/kg, day 84, calf 1, 1 mg/kg injection)?
A: The concentration at 2016 h was 7 ng/mL.

Q: What about the concentration at 2016 h ([1]; bovine, plasma, 1 mg/kg, day 84, calf 2, 1 mg/kg injection) of the same molecule?
A: The concentration at 2016 h was 7 ng/mL.

Q: And the Cmax ([1]; bovine, plasma, calves, injection, 1 mg/kg, read-out: maximum concentration in the blood (plasma))?
A: Its Cmax is 7 to 10 ng/mL.

Q: And the “persistence of blood plasma level” value ([1]; level of 7 to 10 ppb, calves, 1 mg/kg)?
A: The value was “maintained over a relatively long period”.

Q: What about the solubility [2, 4] of the same molecule?
A: Its solubility is 3 µg/mL (≈ 5.93 µM).

Q: What about the solubility in isopropanol [2] of the same molecule?
A: Its solubility in isopropanol is 0.09%.

Q: And the solubility in n-octanol [2]?
A: The solubility in n-octanol was 0.065%.

Q: And the solubility [2, 5]?
A: Its solubility is 0.02 µg/mL (≈ 0.0395 µM).

Q: Which concentration at 24 h ([1]; bovine, plasma, 1 mg/kg, day 1, calf 3, 1 mg/kg injection) does the source give for `Nc1ccc(F)c(C(=O)NC(=O)Nc2ccc(Cl)c(Oc3ncc(C(F)(F)F)cc3Cl)c2)c1F` [Compound 1.1, N-[3-(3-chloro-5-trifluoromethylpyridyl-2-oxy)-4-chlorophenyl]-N'-[2,6-difluoro-3-aminobenzoyl]-urea] here?
A: The concentration at 24 h was 126 ng/mL.

Q: And the concentration at 24 h ([1]; bovine, plasma, 1 mg/kg, day 1, calf 4, 1 mg/kg injection)?
A: The concentration at 24 h was 185 ng/mL.

Q: What about the concentration at 168 h ([1]; bovine, plasma, 1 mg/kg, day 7, calf 3, 1 mg/kg injection) of the same molecule?
A: The concentration at 168 h was 48 ng/mL.

Q: And the concentration at 168 h ([1]; bovine, plasma, 1 mg/kg, day 7, calf 4, 1 mg/kg injection)?
A: Its concentration at 168 h is 66 ng/mL.

Q: And the concentration at 336 h ([1]; bovine, plasma, 1 mg/kg, day 14, calf 3, 1 mg/kg injection)?
A: The concentration at 336 h was 16 ng/mL.

Q: And the concentration at 336 h ([1]; bovine, plasma, 1 mg/kg, day 14, calf 4, 1 mg/kg injection)?
A: Its concentration at 336 h is 27 ng/mL.

Q: And the concentration at 504 h ([1]; bovine, plasma, 1 mg/kg, day 21, calf 3, 1 mg/kg injection)?
A: Its concentration at 504 h is 10 ng/mL.

Q: What about the concentration at 504 h ([1]; bovine, plasma, 1 mg/kg, day 21, calf 4, 1 mg/kg injection) of the same molecule?
A: Its concentration at 504 h is 12 ng/mL.

Q: And the concentration at 672 h ([1]; bovine, plasma, 1 mg/kg, day 28, calf 3, 1 mg/kg injection)?
A: The concentration at 672 h was 5 ng/mL.

Q: And the concentration at 672 h ([1]; bovine, plasma, 1 mg/kg, day 28, calf 4, 1 mg/kg injection)?
A: The concentration at 672 h was 6 ng/mL.

Q: What about the concentration at 840 h ([1]; bovine, plasma, 1 mg/kg, day 35, calf 3, 1 mg/kg injection) of the same molecule?
A: Its concentration at 840 h is 2 ng/mL.

Q: And the concentration at 840 h ([1]; bovine, plasma, 1 mg/kg, day 35, calf 4, 1 mg/kg injection)?
A: Its concentration at 840 h is 4 ng/mL.

Q: And the “bio-availability compared with (A)” value ([1]; calves, injection, 1 mg/kg)?
A: The value was “distinctly better bio-availability than does compound (A)”.

Q: And the “excretion compared with (A)” value ([1]; calves, injection, 1 mg/kg)?
A: The value was “excreted considerably more rapidly than (A)”.

Q: And the “reaching of high concentration in the blood plasma” value ([1]; calves, injection, 1 mg/kg)?
A: The value was “a high concentration in the blood plasma is reached very rapidly”.

Q: What about the Blood plasma level ([1]; day 42, calf 3, 1 mg/kg injection) of the same molecule?
A: Its Blood plasma level is 0 ppb.

Q: And the Blood plasma level ([1]; day 42, calf 4, 1 mg/kg injection)?
A: The Blood plasma level was 0 ppb.

Q: What about the Blood plasma level ([1]; day 49, calf 3, 1 mg/kg injection) of the same molecule?
A: Its Blood plasma level is 0 ppb.

Q: What about the Blood plasma level ([1]; day 49, calf 4, 1 mg/kg injection) of the same molecule?
A: The Blood plasma level was 0 ppb.

Q: And the Blood plasma level ([1]; day 56, calf 3, 1 mg/kg injection)?
A: Its Blood plasma level is 0 ppb.

Q: And the Blood plasma level ([1]; day 56, calf 4, 1 mg/kg injection)?
A: The Blood plasma level was 0 ppb.

Q: What about the Blood plasma level ([1]; day 63, calf 4, 1 mg/kg injection) of the same molecule?
A: Its Blood plasma level is 0 ppb.

Q: What about the Blood plasma level ([1]; day 70, calf 4, 1 mg/kg injection) of the same molecule?
A: The Blood plasma level was 0 ppb.

Q: What about the Blood plasma level ([1]; day 77, calf 4, 1 mg/kg injection) of the same molecule?
A: Its Blood plasma level is 0 ppb.

Q: And the Blood plasma level ([1]; day 84, calf 4, 1 mg/kg injection)?
A: Its Blood plasma level is 0 ppb.

Q: What about the “blood plasma values compared with (A)” value ([1]; very rapidly after administration, calves, 1 mg/kg) of the same molecule?
A: The value was “higher blood plasma values”.

Q: What about the activity (Ctenocephalides felis) of the same molecule?
A: Its activity is “more than 50%”.

Q: What about the solubility [2, 4] of the same molecule?
A: The solubility was about 60 µg/mL (≈ 115 µM).

Q: And the solubility in isopropanol [2]?
A: Its solubility in isopropanol is 0.30%.

Q: And the solubility in n-octanol [2]?
A: The solubility in n-octanol was 0.56%.

Q: What about the solubility [2, 5] of the same molecule?
A: Its solubility is 0.11 µg/mL (≈ 0.211 µM).

Q: For `Nc1ccc(F)c(C(=O)NC(=O)Nc2ccc(Cl)c(Oc3ncc(C(F)(F)C(F)(Cl)Cl)cc3Cl)c2)c1F` [Compound 1.9], which “mortality of the larvae” value [3] is on record?
A: The value was 100%.

Q: For `Nc1ccc(F)c(C(=O)NC(=O)Nc2ccc(F)c(Oc3ncc(C(F)(F)F)cc3Cl)c2)c1F` [Compound 1.6, N-[3-(3-chloro-5-trifluoromethylpyridyl-2-oxy)-4-fluorophenyl]-N'-[2,6-difluoro-3-aminobenzoyl]-urea], which activity (Ctenocephalides felis) is on record?
A: The activity was “more than 50%”.

Q: For `Nc1ccc(F)c(C(=O)NC(=O)Nc2cccc(Sc3ncc(C(F)(F)F)cc3Cl)c2)c1F` [Compound 1.12], which activity (Ctenocephalides felis) is on record?
A: Its activity is “more than 50%”.
